Results as given in US4950669A, “Methods and compositions for promoting growth of animals” (priority 1987, dated 1990).
Where a SMILES comes first, the peptide text is derived from it.

How the values were obtained:
[1] = 44-day floor-pen study in chickens (Example XV); type: in vivo; settings: feed 30 g/ton, 44 days
Description: There were 60 chickens per replication, 3 replications per treatment. One group of controls was unmedicated, while a second control group received Bacitracin in the feed at 30 g/ton.

[2] = 44-day floor pen study in chickens (Example XIV); type: in vivo; settings: feed 30 g/ton
Protocol: A 44-day floor pen study was conducted in which n-morpholinyl-β-benzoyl-propionamide was administered in chicken feed at concentrations of 1 ppm, 2.5 ppm, 5 ppm, 10 ppm, 20 ppm, 40 ppm and 60 ppm. One group of controls received no medication in its feed, while a second control group received Bacitracin MD in its feed at 30 g/ton. Birds were fed ad libitum. There were 5 replications per treatment, 50 birds per replication. Birds were weighed to determine weight gain and feed-to-gain ration after 35 days and 44 days.

[3] = 21-day battery study in chickens (Example XIII); type: in vivo; settings: feed 30 g/ton
Protocol: N-morpholinyl-β-benzoyl-propionamide was admixed with chicken feed at concentrations of 1.0 ppm, 7.5 ppm and 15 ppm. A 21-day battery study was conducted with the NMBP-containing feed. One group of controls was unmedicated, while a second control group received Bacitracin MD in its feed at 30 g/ton. The birds were fed ad libitum and weighed on days 7, 14 and 21. There were 10 birds per replication, 4 replications in controls and 2 replications per drug treatment.

[4] = 28-day chicken growth study, feed or i.m. injection (Example XII); type: in vivo, chickens; settings: feed 30 g/ton
Protocol: Portions of N-morpholinyl-β-benzoyl-propionamide were admixed with chicken feed at 1 mg/kg and a 2 mg/kg, respectively. Another portion was formulated into an injectable formulation at a concentration of 2% in polyethylene glycol. The N-morpholinyl-β-benzoylpropionamide was then administered to chickens, either by i.m. injection or in feed, over 28-day period. One group of controls received no medication, while another group of controls received Bacitracin MD in its feed at 30 g/ton. Those chickens receiving intramuscular injections were injected once a week with a dosage of either 1 mg/kg or 2 mg/kg, based on body weight. Birds were weighed on days 0, 14 and 28.

With CC[C@H](C)[C@H](N)C1=N[C@H](C(=O)N[C@@H](CC(C)C)C(=O)N[C@H](CCC(=O)O)C(=O)N[C@H](C(=O)N[C@H]2CCCCNC(=O)[C@H](CC(N)=O)NC(=O)[C@@H](CC(=O)O)NC(=O)[C@H](Cc3cnc[nH]3)NC(=O)[C@@H](Cc3ccccc3)NC(=O)[C@H]([C@@H](C)CC)NC(=O)[C@@H](CCCN)NC2=O)[C@@H](C)CC)CS1 [Bacitracin MD, reference compound] (HELM PEPTIDE1{[CC[C@H](C)[C@H](N)C1=N[C@H](C(=O)[*:2])CS1].L.[dE].I.K.[NCCC[C@@H](N[*:1])C(=O)[*:2]].I.[dF].H.[dD].N}$PEPTIDE1,PEPTIDE1,5:R3-11:R2$$$V2.0) the “Average Live Bird Weight” value [1] was 2.11 kg, the “Feed Conversion” value [1] was 1.75 and the F/G ([2]; Day 35) was 1.59. The “Weight Gain” value ([2]; Day 35) was 1376 g, the F/G ([2]; Day 44) was 1.72 and the “Weight Gain” value ([2]; Day 44) was 1909 g. The “growth results in words” value ([2]; house cleaned and disinfected just prior to study) was “lack of positive results”, the F/G ([3]; Day 7) was 1.37 and the “Weight Gain” value ([3]; Day 7) was 337 g. The F/G ([3]; Day 14) was 1.47, the “Weight Gain” value ([3]; Day 14) was 707 g and the F/G ([3]; Day 21) was 1.58. For the same compound, the “Weight Gain” value ([3]; Day 21) was 1155 g, the “Average Weight” value ([4]; Day 0 (baseline)) was 98.6 g and the “Average Weight” value ([4]; Day 14) was 475.6 g. The “Feed Conversion” value ([4]; Day 14) was 1.37, the “Weight Gain” value ([4]; Day 14) was 377.0 g and the “Average Weight” value ([4]; Day 28) was 1026.9 g. The “Feed Conversion” value ([4]; Day 28) was 1.58 and the “Weight Gain” value ([4]; Day 28) was 928.3 g.
